From ChEMBL document CHEMBL5537140, “Discovery and exploration of novel somatostatin receptor subtype 5 (SSTR5) antagonists for the treatment of cholesterol gallstones” (Eur J Med Chem, 2024)
Calls of active or inactive are those of the source. No cut-off for these calls is given here.

Assays:
[1] = biological target: T1, Somatostatin receptor type 5 (Mus musculus, UniProt O08858); experiment: Antagonist activity at N-terminal HA-tagged mouse SSTR5 expressed in CHO cells assessed as change in intracellular […] level preincubated with agonist for 10 mins followed by compound addition by CRE-driven luciferase reporter based microplate reader; format: functional, cell-based
T1 sequence (O08858 whole entry): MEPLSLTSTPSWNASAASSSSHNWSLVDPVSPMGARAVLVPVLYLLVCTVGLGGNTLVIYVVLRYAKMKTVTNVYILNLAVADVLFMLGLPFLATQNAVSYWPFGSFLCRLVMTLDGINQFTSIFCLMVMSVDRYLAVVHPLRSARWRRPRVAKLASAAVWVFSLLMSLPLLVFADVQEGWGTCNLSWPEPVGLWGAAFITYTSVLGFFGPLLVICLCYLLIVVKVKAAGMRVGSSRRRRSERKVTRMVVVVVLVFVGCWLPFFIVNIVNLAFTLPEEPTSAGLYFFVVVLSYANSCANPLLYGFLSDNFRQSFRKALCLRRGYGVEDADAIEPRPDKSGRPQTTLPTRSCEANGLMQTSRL

CHO = experiment: Cytotoxicity against CHO cells upto 10 uM; details: chinese hamster
[2] = biological target: Somatostatin receptor type 5 (Homo sapiens, UniProt P35346); experiment: Antagonist activity at N-terminal HA-tagged human SSTR5 expressed in CHO cells assessed as change in intracellular […] level preincubated with agonist for 10 mins followed by compound addition by CRE-driven luciferase reporter based microplate reader; format: functional, cell-based
[3] = Oral bioavailability in C57BL/6J mouse at 3 mg/kg measured at 0.25 to 24 hrs by LC-MS/MS analysis; format: ADME, organism-based; details: in vivo, time 0.25-24 hrs
Mus musculus [4] = experiment: Protection against lithogenic diet induced cholesterol gallstone C57BL/6J mouse model assessed as reduction in dense-cored gallstone precipitate at 60 mg/kg, po administered once daily for 14 days; format: functional, organism-based; details: time 14.0 day
[5] = Half-life in C57BL/6J mouse at 3 mg/kg, po measured at 0.25 to 24 hrs by LC-MS/MS analysis; format: ADME, organism-based; details: in vivo, time 0.25-24 hrs
Mus musculus [6] = experiment: Protection against lithogenic diet induced cholesterol gallstone C57BL/6J mouse model assessed as reduction in cholesterol gallstone formation at 1 to 3 mg/kg, po administered once daily for 14 days; format: functional, organism-based; details: dose 1-3 mg/kg, time 14.0 day
Mus musculus [7] = experiment: Protection against lithogenic diet induced cholesterol gallstone C57BL/6J mouse model assessed as reduction in dense-cored gallstone precipitate at 1 to 3 mg/kg, po administered once daily for 14 days; format: functional, organism-based; details: dose 1-3 mg/kg, time 14.0 day
[8] = Cmax in C57BL/6J mouse at 3 mg/kg, po measured at 0.25 to 24 hrs by LC-MS/MS analysis; format: ADME, organism-based; details: in vivo, time 0.25-24 hrs
[9] = Cytotoxicity against CHO cells assessed as cellular ATP at 10 uM relative to control; format: toxicity, cell-based, Cricetulus griseus; details: chinese hamster, read-out: Activity
[10] = Observed clearance in C57BL/6J mouse at 1 mg/kg, iv measured at 0.05 to 24 hrs by LC-MS/MS analysis; format: ADME, organism-based; details: in vivo, time 0.05-24 hrs
[11] = Metabolic stability in mouse liver microsomes assessed as parent compound remaining at 1 uM incubated for 30 mins in presence of NADPH by LC-MS/MS analysis; format: ADME, Microsome; details: read-out: Stability
[12] = Observed AUC (0 to infinity) in C57BL/6J mouse at 3 mg/kg, po measured at 0.25 to 24 hrs by LC-MS/MS analysis; format: ADME, organism-based; details: in vivo, time 0.25-24 hrs
[13] = Half-life in C57BL/6J mouse at 1 mg/kg, iv measured at 0.05 to 24 hrs by LC-MS/MS analysis; format: ADME, organism-based; details: in vivo, time 0.05-24 hrs
[14] = Observed volume of distribution at steady state in C57BL/6J mouse at 1 mg/kg, iv measured at 0.05 to 24 hrs by LC-MS/MS analysis; format: ADME, organism-based; details: in vivo, time 0.05-24 hrs, read-out: Vdss
[15] = Tmax in C57BL/6J mouse at 3 mg/kg, po measured at 0.25 to 24 hrs by LC-MS/MS analysis; format: ADME, organism-based; details: in vivo, time 0.25-24 hrs
Mus musculus [16] = experiment: Protection against lithogenic diet induced cholesterol gallstone C57BL/6J mouse model assessed as reduction in large gallstone precipitate at 60 mg/kg, po administered once daily for 14 days; format: functional, organism-based; details: time 14.0 day
[17] = biological target: Voltage-gated inwardly rectifying potassium channel KCNH2 (Homo sapiens, UniProt Q12809); experiment: Inhibition of hERG expressed in CHO cells by Qpatch automatic patch clamp method
Mus musculus [18] = experiment: Induction of gallbladder emptying in C57BL/6J mouse assessed as reduction in gallbladder weight at 10 mg/kg, po preadministered with compound for 30 mins followed by egg yolk administration and measured after 15 mins; format: functional, organism-based; details: time 45.0 min
[19] = Metabolic stability in human liver microsomes assessed as parent compound remaining at 1 uM incubated for 30 mins in presence of NADPH by LC-MS/MS analysis; format: ADME, Microsome; details: read-out: Stability
[20] = Observed AUC (0 to infinity) in C57BL/6J mouse at 1 mg/kg, iv measured at 0.05 to 24 hrs by LC-MS/MS analysis; format: ADME, organism-based; details: in vivo, time 0.05-24 hrs
Mus musculus [21] = experiment: Protection against lithogenic diet induced cholesterol gallstone C57BL/6J mouse model assessed as reduction in large gallstone precipitate at 1 to 3 mg/kg, po administered once daily for 14 days; format: functional, organism-based; details: dose 1-3 mg/kg, time 14.0 day
Mus musculus [22] = experiment: Protection against lithogenic diet induced cholesterol gallstone C57BL/6J mouse model assessed as reduction in cholesterol gallstone formation at 60 mg/kg, po administered once daily for 14 days; format: functional, organism-based; details: time 14.0 day

Sequence of Somatostatin receptor type 5 (Homo sapiens, UniProt P35346) (P35346 whole entry): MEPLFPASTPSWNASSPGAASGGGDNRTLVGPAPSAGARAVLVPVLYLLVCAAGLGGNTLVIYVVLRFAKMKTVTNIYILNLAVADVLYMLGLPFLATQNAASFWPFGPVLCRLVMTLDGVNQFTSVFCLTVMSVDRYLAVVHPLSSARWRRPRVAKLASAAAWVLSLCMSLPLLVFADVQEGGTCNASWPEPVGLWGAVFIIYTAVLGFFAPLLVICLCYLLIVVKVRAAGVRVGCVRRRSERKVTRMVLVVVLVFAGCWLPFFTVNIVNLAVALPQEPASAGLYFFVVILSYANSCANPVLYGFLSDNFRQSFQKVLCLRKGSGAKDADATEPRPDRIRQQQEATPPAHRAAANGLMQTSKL
Sequence of Voltage-gated inwardly rectifying potassium channel KCNH2 (Q12809 whole entry): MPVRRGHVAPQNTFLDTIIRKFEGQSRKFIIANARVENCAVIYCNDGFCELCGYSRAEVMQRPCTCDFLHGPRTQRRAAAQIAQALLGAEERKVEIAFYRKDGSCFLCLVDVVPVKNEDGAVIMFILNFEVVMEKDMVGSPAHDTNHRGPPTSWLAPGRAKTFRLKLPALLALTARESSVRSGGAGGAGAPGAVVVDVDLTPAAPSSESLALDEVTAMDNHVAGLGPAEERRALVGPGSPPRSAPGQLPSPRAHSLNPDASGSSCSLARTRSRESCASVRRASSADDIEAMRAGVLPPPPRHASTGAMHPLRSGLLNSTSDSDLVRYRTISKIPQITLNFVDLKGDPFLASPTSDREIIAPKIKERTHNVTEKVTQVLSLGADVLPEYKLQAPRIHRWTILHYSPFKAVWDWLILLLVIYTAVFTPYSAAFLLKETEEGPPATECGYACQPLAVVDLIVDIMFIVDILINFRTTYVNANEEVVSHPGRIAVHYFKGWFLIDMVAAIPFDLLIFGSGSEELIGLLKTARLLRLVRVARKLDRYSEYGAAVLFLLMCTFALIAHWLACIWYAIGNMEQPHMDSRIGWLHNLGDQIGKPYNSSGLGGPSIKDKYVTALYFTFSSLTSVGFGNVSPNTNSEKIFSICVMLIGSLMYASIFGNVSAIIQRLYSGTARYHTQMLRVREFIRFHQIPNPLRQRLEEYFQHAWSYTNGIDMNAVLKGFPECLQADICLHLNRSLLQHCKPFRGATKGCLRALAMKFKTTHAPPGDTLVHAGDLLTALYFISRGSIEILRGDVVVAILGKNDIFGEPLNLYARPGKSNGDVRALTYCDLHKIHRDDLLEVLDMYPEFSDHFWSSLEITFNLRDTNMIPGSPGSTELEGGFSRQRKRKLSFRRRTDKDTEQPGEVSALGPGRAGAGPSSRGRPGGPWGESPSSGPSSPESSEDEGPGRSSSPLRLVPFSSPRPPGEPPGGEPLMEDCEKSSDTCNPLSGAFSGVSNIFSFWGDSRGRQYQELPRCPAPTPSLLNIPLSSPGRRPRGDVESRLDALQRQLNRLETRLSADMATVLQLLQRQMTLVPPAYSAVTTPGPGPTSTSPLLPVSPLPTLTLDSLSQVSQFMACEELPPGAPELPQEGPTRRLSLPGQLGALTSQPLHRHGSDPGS

Structure (SMILES)	IC50 [1]	Activity (CHO)	further results
CCOc1cc(CN2CC(COc3ccc(C(=O)O)cc3)C2)cc(OCC)c1-c1ccc(F)cc1	394 nM	Non-Toxic	
CCOc1cc(CN2CCC(F)(CNc3ccc(C(=O)O)c(Cl)c3)CC2)cc(OCC)c1-c1ccc(F)cc1	42.2 nM	Non-Toxic	
CCOc1cc(CN2CCC(F)(C(=O)Nc3ccc(C(=O)O)cc3)CC2)cc(OCC)c1-c1ccc(F)cc1	2560 nM	Non-Toxic	
CCOc1cc(CN2CCC(O)(Cc3ccc(C(=O)O)cc3)CC2)cc(OCC)c1-c1ccc(F)cc1	176 nM	Non-Toxic	
CCOc1cc(CN2CCC(C)(COc3ccc(C(=O)O)cc3)CC2)cc(OCC)c1-c1ccc(F)cc1	1860 nM	Non-Toxic	IC50 [2]: 3410 nM
CCOc1cc(CN2CCC(F)(CNc3ccc(C(=O)O)cc3C)CC2)cc(OCC)c1-c1ccc(F)cc1	25.4 nM	Non-Toxic	
CCOc1cc(CN2CCC(O)(COc3ccc(C(=O)O)cc3)CC2)cc(OCC)c1-c1ccc(F)cc1	51.1 nM	Non-Toxic	
CCOc1cc(CN2CCC(O)(CNc3ccc(C(=O)O)cc3)CC2)cc(OCC)c1-c1ccc(F)cc1	52 nM	Non-Toxic	
CCOc1cc(CN2CC(Nc3ccc(C(=O)O)cc3)C2)cc(OCC)c1-c1ccc(F)cc1	183 nM	Non-Toxic	IC50 [2]: 1010 nM
CCOc1cc(CN2CCC(F)(CNc3ccc(C(=O)O)c(OC)c3)CC2)cc(OCC)c1-c1ccc(F)cc1	1.4 nM	Non-Toxic	bioavailability [3]: 29.3%; Activity (Mus musculus [4]): Active; IC50 [2]: 2.8 nM; half-life [5]: 3.58 h; Activity (Mus musculus [6]): Active; Activity (Mus musculus [7]): Active; Cmax [8]: 208 ng/mL; viability at 10 µM [9]: 92%; clearance [10]: 30.5 mL/min/kg; remaining at 0.5 h, 1 µM [11]: 59.8%; AUC(0-inf) [12]: 494 ng·h/mL; half-life [13]: 2.45 h; Vd [14]: 2.6 L/kg; Tmax [15]: 0.33 h; Activity (Mus musculus [16]): Active; IC50 [17]: > 20000 nM; Activity (Mus musculus [18]): Active; remaining at 0.5 h, 1 µM [19]: 92.5%; AUC(0-inf) [20]: 562 ng·h/mL; Activity (Mus musculus [21]): Active
CCOc1cc(CN2CCC(O)(c3ccc(Cl)cc3)CC2)cc(OCC)c1-c1ccc(F)cc1	11100 nM	Non-Toxic	
CCOc1cc(CN2CCC(C)(CNc3ccc(C(=O)O)cc3)CC2)cc(OCC)c1-c1ccc(F)cc1	128 nM	Non-Toxic	
CCOc1cc(CN2CCC(C(=O)Nc3ccc(C(=O)O)cc3)CC2)cc(OCC)c1-c1ccc(F)cc1	853 nM	Non-Toxic	
CCOc1cc(CN2CCC(F)(COc3ccc(C(=O)O)cc3)CC2)cc(OCC)c1-c1ccc(F)cc1	14.8 nM	Non-Toxic	remaining at 0.5 h, 1 µM [11]: 61%
CCOc1cc(CN2CCC(Oc3ccc(C(=O)O)cc3)CC2)cc(OCC)c1-c1ccc(F)cc1	44.3 nM	Non-Toxic	
CCOc1cc(CN2CCC(COc3ccc(C(=O)O)cc3)CC2)cc(OCC)c1-c1ccc(F)cc1	11.5 nM		
CCOc1cc(CN2CCC(F)(CNc3ccc(O)cc3)CC2)cc(OCC)c1-c1ccc(F)cc1	1300 nM	Non-Toxic	
CCOc1cc(CN2CCC(O)(C(=O)Nc3ccc(C(=O)O)cc3)CC2)cc(OCC)c1-c1ccc(F)cc1	14700 nM	Non-Toxic	IC50 [2]: 22900 nM
CCOc1cc(CN2CCC(F)(CNc3ccc(C(=O)O)c(C)c3)CC2)cc(OCC)c1-c1ccc(F)cc1	97.5 nM	Non-Toxic	
CCOc1cc(CN2CC(CNc3ccc(C(=O)O)cc3)C2)cc(OCC)c1-c1ccc(F)cc1	157 nM	Non-Toxic	
CCOc1cc(CN2CCC(C)(C(=O)Nc3ccc(C(=O)O)cc3)CC2)cc(OCC)c1-c1ccc(F)cc1	12200 nM	Non-Toxic	
CCOc1cc(CN2CCC(F)(CNc3ccc(C(=O)O)cc3)CC2)cc(OCC)c1-c1ccc(F)cc1	13.9 nM	Non-Toxic	IC50 [2]: 27.6 nM; remaining at 0.5 h, 1 µM [11]: 81.4%; IC50 [17]: > 20000 nM
CCOc1cc(CN2CCC(F)(CNc3ccc(C(=O)O)cc3OC)CC2)cc(OCC)c1-c1ccc(F)cc1	20.5 nM	Non-Toxic	
CN(C)C(=O)C(CCN1CCC(O)(c2ccc(Cl)cc2)CC1)(c1ccccc1)c1ccccc1 [LOPERAMIDE]	63600 nM	Non-Toxic	IC50 [2]: 33100 nM
C[C@H](CCC(=O)O)[C@H]1CC[C@H]2[C@@H]3[C@@H](O)C[C@@H]4C[C@H](O)CC[C@]4(C)[C@H]3CC[C@]12C			Activity (Mus musculus [22]): Active
CCOc1cc(CN2CCC(CNc3ccc(C(=O)O)cc3)CC2)cc(OCC)c1-c1ccc(F)cc1	91.7 nM	Non-Toxic	
CCOc1cc(CN2CCC(F)(CNc3ccc(C(=O)O)cc3Cl)CC2)cc(OCC)c1-c1ccc(F)cc1	132 nM	Non-Toxic	
CCOc1cc(CN2CCC(F)(CNc3ccc(N)cc3)CC2)cc(OCC)c1-c1ccc(F)cc1	1770 nM	Non-Toxic	
